From patent US11833137B2, “Substituted chromenones, IRE1 inhibitors, and methods of using same” (The Wistar Institute, priority 2018, dated 2023)
Entries after “also recorded” stand apart in the source; their conditions may differ.

Experiments:
[1] = system: XBP-1s expression, 5TGM1 cells; assay: XBP-1s immunoblot in 5TGM1 multiple myeloma cells; type: cell-based, mouse; settings: for suppression of XBP-1s expression, long term: 10 μM for a course of 3 days
Method: 5TGM1 mouse multiple myeloma cells, primary mouse B cells, primary mouse Eμ-TCL1 CLL cells, and human CLL cell lines (MEC2 and WaC3) were cultured at 37° C. in a 5% CO2 incubator using RPMI 1640 media (Gibco) supplemented with 10% heat-inactivated FBS, 2 mM L-glutamine, 100 U/mL penicillin G sodium, 1 mM sodium pyruvate, 0.1 mM non-essential amino acids, 100 μg/mL streptomycin sulfate and 0.1 mM β-mercaptoethanol (β-ME).
Cells were lysed using RIPA buffer (10 mM Tris-HCl, pH 7.4, 150 mM NaCl, 1% NP-40, 0.5% sodium deoxycholate, 0.1% SDS, and 1 mM EDTA) supplemented with protease inhibitors (Roche). Protein concentrations were determined by BCA assays (Pierce).
Samples were boiled in SDS-PAGE sample buffer (62.5 mM Tris-HCl, pH 6.8, 2% SDS, 10% glycerol, 0.1% bromophenol blue) with β-ME and analyzed by SDS-PAGE. Proteins were transferred to nitrocellulose membranes, blocked in 5% nonfat milk (wt/vol in PBS), and immunoblotted with indicated primary antibodies and appropriate horseradish peroxidase-conjugated secondary antibodies. Immunoblots were developed using Western Lighting Chemiluminescence Reagent (PerkinElmer).
To develop inhibitors with improved potency to target the IRE1/XBP-1 pathway, tricyclic chromenone-based IRE1 RNase inhibitors with different amine group (R^1) were synthesized and compared: allyloxycarbonyl (alloc) in B-H09 (1), —H in C-B06 (2), and —CH3 in C-D06 (3) (FIG. 1A). 5TGM1 multiple myeloma cells were chosen to evaluate inhibitory effects of these inhibitors because they have constitutively activated IRE1/XBP-1 pathways.

[2] = Solubility in organic solvent (DMSO); type: physicochemical; settings: such as DMSO
MEC2 cells = assay: Cell proliferation XTT assay, MEC2; type: cell-based, human
5TGM1 cells = assay: Cell proliferation XTT assay, 5TGM1; type: cell-based, mouse
Method: 5TGM1 cells were suspended in phenol red-free RPMI media, seeded in 96-well cell culture plates, and treated with indicated IRE1 inhibitors (20 μM, unless indicated otherwise). At indicated time points, cells were spun down and cell proliferation was assessed by XTT assays (Roche) according to the manufacturer's instructions. Briefly, 50 μl XTT labeling reagent, 1 μl electron-coupling reagent, and 100 μl phenol red-free RPMI media were combined and applied to each well of the 96-well plates. Cells were incubated for 4 h in a CO2 incubator to allow for the yellow tetrazolium salt XTT to be cleaved by mitochondrial dehydrogenases of metabolically active cells to form the orange formazan dye, which can be quantified at 492 nm using a BioTek SYNERGY™ NEO2 Multimode Reader.

[3] = system: XBP-1s expression, MEC2 cells; assay: XBP-1s immunoblot in MEC2 cells; type: cell-based, human; settings: 20 μM 16 h, then hydrogen peroxide 4 h
Method: (§1) FIGS. 5A-5J illustrate the finding that installation of a boronate cage cleavable by H2O2 stabilizes the 1,3-dioxane acetal protective group of D-F07 to allow for temporal inhibition of XBP-1s upon contact with H2O2. (FIG. 5A) A scheme showing that installation of a boronate-caged group stabilizes the 1,3-dioxane acetal protective group to allow for H2O2-mediated release of intact D-F07. (FIG. 5B) The fluorescence of BC-D-F07a (2.5 μM in the DMSO/PBS solution (v/v=1:99), Ex=360 nm) increases upon incubation with 0 to 200 μM hydrogen peroxide at room temperature for 1 h. (FIG. 5C) The fluorescence of BC-D-F07b (2.5 μM in the DMSO/PBS solution (v/v=1:99), Ex=360 nm) increases upon incubation with 0 to 2 mM hydrogen peroxide at 37° C. for 1 h. […] I0 was the initial fluorescence intensity of D-F07, BC-D-F07a or BC-D-F07b at 0 h. (FIG. 5E) The levels of hydrogen peroxide produced by 5TGM1, 72-h LPS-stimulated primary CLL, MEC2, and WaC3 cells were measured by Amplex Red with or without the addition of extracellular catalase (500 U/mL). (FIG. 5F) 5TGM1 cells were treated with BC-D-F07a at increasing concentrations for 24 h, lysed, and analyzed for the expression of indicated proteins by immunoblots. […] Cells were lysed and analyzed for the expression of indicated proteins by immunoblots. […] Cells were lysed and analyzed for the expression of indicated proteins by immunoblots. […]

[4] = system: XBP-1s expression, CD5+ CLL cells from Eμ-TCL1 mice; assay: XBP-1s immunoblot in primary CLL cells; type: cell-based, mouse; settings: LPS-stimulated, 20 μM 16 h, then 0, 50 or 100 μM hydrogen peroxide 4 h
Method: as §1

[5] = Fluorescence stability (decomposition) in aqueous solution; type: physicochemical; settings: aqueous solution, 37° C., 0 to 48 h, versus D-F07
Method: (FIG. 2B) 5TGM1 cells were treated with DMSO or with 20 μM 2, 4, 3, or 7 dissolved in DMSO for 3 days and subjected to XTT assays. Percentages of growth were determined by comparing treated groups with control groups (DMSO). Each data point derived from four independent groups receiving exactly the same treatment was plotted as mean±SD. Results are representative of three independent experiments. […] The values of I/I0 were plotted as a function of time and shown in the inset. I0 was the initial fluorescence intensity of 4 at 0 h. […] The values of I/I0 were plotted as a function of time and shown in the inset. I0 was the initial fluorescence intensity of 5 at 0 h. […] (FIG. 2G) The decomposition rates of 7 and 8 were plotted as a function of time in RPMI media incubated at 37° C. Aliquots were analyzed by HPLC and the peaks integrated.
FIGS. 5A-5J illustrate the finding that installation of a boronate cage cleavable by H2O2 stabilizes the 1,3-dioxane acetal protective group of D-F07 to allow for temporal inhibition of XBP-1s upon contact with H2O2. (FIG. 5A) A scheme showing that installation of a boronate-caged group stabilizes the 1,3-dioxane acetal protective group to allow for H2O2-mediated release of intact D-F07. (FIG. 5B) The fluorescence of BC-D-F07a (2.5 μM in the DMSO/PBS solution (v/v=1:99), Ex=360 nm) increases upon incubation with 0 to 200 μM hydrogen peroxide at room temperature for 1 h. (FIG. 5C) The fluorescence of BC-D-F07b (2.5 μM in the DMSO/PBS solution (v/v=1:99), Ex=360 nm) increases upon incubation with 0 to 2 mM hydrogen peroxide at 37° C. for 1 h. […] I0 was the initial fluorescence intensity of D-F07, BC-D-F07a or BC-D-F07b at 0 h. (FIG. 5E) The levels of hydrogen peroxide produced by 5TGM1, 72-h LPS-stimulated primary CLL, MEC2, and WaC3 cells were measured by Amplex Red with or without the addition of extracellular catalase (500 U/mL). (FIG. 5F) 5TGM1 cells were treated with BC-D-F07a at increasing concentrations for 24 h, lysed, and analyzed for the expression of indicated proteins by immunoblots. (FIG. 5G) CD5+ CLL cells purified from spleens of Eμ-TCL1 mice were stimulated with […], subsequently treated with BC-D-F07a at 20 μM for 16 h, and then incubated with hydrogen peroxide at indicated concentrations for another 4 h. Cells were lysed and analyzed for the expression of indicated proteins by immunoblots. […] Cells were lysed and analyzed for the expression of indicated proteins by immunoblots. […] Percentages of growth were determined by comparing treated groups with control groups (DMSO). […]
UV-vis and fluorescence spectra were carried out on a BioTek SYNERGY™ NEO2 instrument (96 well plate).

[6] = In vivo pharmacokinetics, serum fluorescence; parameters: species or system Eμ-TCL1 mouse; settings: single intraperitoneal injection of 58 mg/kg D-F07
Method: In vivo pharmacokinetics studies were carried out by intraperitoneally injecting 58 mg/kg D-F07 (347.36 Daltons) or 96 mg/kg TC-D-F07 (577.52 Daltons) into each Eμ-TCL1 mouse to achieve equivalent molar concentrations in the sera. Blood was collected via submandibular bleeding into an Eppendorf tube at 0.25-, 0.5-, 1-, and 1.5-h time points after a single injection. Blood samples were stored at room temperature for 5 min, placed on wet ice for 5 min, and centrifuged at 15,000 rpm/min for 5 min to obtain sera. D-F07 in sera was quantified by measuring the fluorescence intensity using a BioTek SYNERGY™ NEO2 Multimode Reader (Ex/Em: 350/456 nm). Each fluorescent reading value was adjusted by subtracting the background from serum samples without D-F07. D-F07 concentrations were calculated by fitting individual data points in a linear standard equation, y=bx+c. The D-F07 standard curve was created by measuring the fluorescence intensity in serum samples containing serially diluted D-F07. Data derived from three mice receiving the same treatment were plotted as means±SEM.

WaC3 cells = assay: Cell proliferation XTT assay, WaC3; type: cell-based, human; settings: 20 μM for a course of 3 days

Row | Structure (SMILES) | suppression of XBP-1s expression, long term [1] | solubility relative to 4 [2] | growth inhibition (XTT) (MEC2 cells; 20 μM for 2 days) | suppression of XBP-1s ([1]; increasing concentrations, 24 h) | growth suppression (XTT) (5TGM1 cells; 20 μM for 2 days) | suppression of XBP-1s [3] | suppression of XBP-1s expression [4] | hydrolysis of 1,3-dioxane acetal by fluorescence decay [5] | cytotoxicity / growth inhibition (XTT) (MEC2 cells; indicated concentrations, 24 h) | suppression of XBP-1s after removal of compound from media ([1]; 10 μM 4 h, washed, UV 10 min, 8 h culture) | overall comparison of inhibition of IRE-1 / XBP-1s expression in whole cells ([1]; summary statement) | growth inhibition / cytotoxicity (XTT) (5TGM1 cells; 20 μM for a course of 3 days) | peak serum concentration [6] [ng/mL] | growth suppression (XTT) (WaC3 cells)
1 | COc1cc2c3c(c(=O)oc2c(C2OCCCO2)c1O)CNCC3 [Compound 11, 7-(1,3-dioxan-2-yl)-8-hydroxy-9-methoxy-1,2,3,4-tetrahydro-5H-chromeno[3,4-c]pyridin-5-one] | more potent than 4 in suppressing XBP-1s expression; also recorded: less potent than D-F07 in suppressing the expression of XBP-1s | at least 16 times less soluble | – | – | – | – | – | – | – | – | – | – | – | –
2 | COc1cc2c3c(c(=O)oc2c(C2OCCCO2)c1OCc1ccc(B2OC(C)(C)C(C)(C)O2)cc1)CN(C)CC3 [BC-D-F07a, 7-(1,3-dioxan-2-yl)-9-methoxy-3-methyl-8-((4-(4,4,5,5-tetramethyl-1,3,2-dioxaborolan-2-yl)benzyl)oxy)-1,2,3,4-tetrahydro-5H-chromeno[3,4-c]pyridin-5-one] | – | – | less capable than D-F07 in inhibiting growth of MEC2 cells | dose-dependent suppression of XBP-1s | could not efficiently oxidize BC-D-F07a, inhibit XBP-1s, or suppress cell growth | more efficient suppression of XBP-1s | suppress the expression of XBP-1s | stabilized the 1,3-dioxane acetal protecting group | – | – | – | – | – | –
3 | COc1cc2c3c(c(=O)oc2c(C2OCCCO2)c1O)CN(C)CC3 [D-F07, 7-(1,3-dioxan-2-yl)-8-hydroxy-9-methoxy-3-methyl-1,2,3,4-tetrahydro-5H-chromeno[3,4-c]pyridin-5-one] | better long-term efficacy in suppressing the expression of XBP-1s than 7 and 10 | – | – | – | – | – | – | – | not cytotoxic to MEC2 cells | failed to suppress XBP-1s continuously | most potent effect in inhibiting the expression of XBP-1s in whole cells | higher cytotoxicity than 3 and 7 | 10203 | initially more potent than 7 and 8 in suppressing WaC3 cell growth; also recorded: suppressed WaC3 cell growth potently
